Laboratory results as given in patent publication US12606561B2, “Substituted pyrazolo[1,5-a][1,3,5]triazines as CDK inhibitors” (QURIENT CO., LTD., priority 2018, dated 2026).

Assays:
CDK1/Cyclin B = biological target: T1, CDK1/Cyclin B (Homo sapiens, UniProt P06493); experiment: Enzymatic assay for CDK1 (LANCE Ultra kinase assay, FRET based); format: biochemical; conditions: ATP at Km; read-out: CDK1 enzymatic activity IC50
T1 construct: purchased Invitrogen PR4768C
Summary of the method: (§1)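 Purified CDK7/Cyclin H/MNAT1 or CDK1/Cyclin B complexes were tested for inhibition at Km ATP. Phosphorylation of a ULight-labelled peptide was detected by FRET with a Europium anti-phospho antibody (LANCE Ultra).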

A2780 = A2780 viability assay (CellTiter-Glo, 72 hours); format: cell-based; conditions: Homo sapiens; A2780 cells
Summary of the method: (§2)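 CellTiter-Glo luminescence measured viability after 72 h of compound exposure (0.0015–10 uM; DMSO below 0.1%) at 37 °C, 5% CO2, run in duplicate. Dosing began 24 h post-seeding in RPMI-1640/10% FBS at 1×10^4 (MV4-11), 5×10^3 (OVCAR-3) or 1×10^3 (A2780) cells/well.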

OVCAR-3 = OVCAR-3 viability assay (CellTiter-Glo, 72 hours); format: cell-based; conditions: Homo sapiens; OVCAR-3 cells
Summary of the method: as §2

CDK5/p25 = biological target: T2, CDK5/p25 (Homo sapiens, UniProt Q00535); experiment: Enzymatic assay for CDK5 (LANCE Ultra kinase assay, FRET based); format: biochemical; conditions: ATP at Km
T2 construct: purchased Invitrogen PR8543B
Summary of the method: (§3)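 Compounds tested as 8 doses in 4-fold steps against CDK2/Cyclin A ([…]) or CDK5/p25 ([…]), with ATP at its Km and 68 nM ULight-MBP substrate. After 60 min at 23° C., EDTA plus Eu-labelled anti-phospho-MBP added; TR-FRET (615/665 nm) read after another 60 min.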

CDK2/Cyclin A = biological target: T3, CDK2/Cyclin A (Homo sapiens, UniProt P24941); experiment: Enzymatic assay for CDK2 (LANCE Ultra kinase assay, FRET based); format: biochemical; conditions: ATP at Km
T3 construct: purchased Invitrogen PV6290
Summary of the method: as §3

CDK7/Cyclin H/MNAT1 = biological target: T4, CDK7/Cyclin H/MNAT1 (Homo sapiens, UniProt P50613); experiment: Enzymatic assay for CDK7 (LANCE Ultra kinase assay, FRET based); format: biochemical; conditions: for IC50: ATP at Km
T4 construct: purchased Invitrogen PR6749B
Summary of the method: as §1

T4 sequence (P50613 whole entry): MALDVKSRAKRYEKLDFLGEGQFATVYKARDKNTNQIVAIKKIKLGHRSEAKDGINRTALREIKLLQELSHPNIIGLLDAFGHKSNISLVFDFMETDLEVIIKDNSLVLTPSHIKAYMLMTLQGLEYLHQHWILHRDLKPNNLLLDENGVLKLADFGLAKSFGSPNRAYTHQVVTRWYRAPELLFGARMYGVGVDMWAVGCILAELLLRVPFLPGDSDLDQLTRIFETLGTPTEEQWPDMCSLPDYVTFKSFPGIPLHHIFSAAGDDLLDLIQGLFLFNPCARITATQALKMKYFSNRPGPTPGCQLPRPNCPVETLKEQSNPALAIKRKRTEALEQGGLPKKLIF
T4 sequence (P51946 whole entry partner): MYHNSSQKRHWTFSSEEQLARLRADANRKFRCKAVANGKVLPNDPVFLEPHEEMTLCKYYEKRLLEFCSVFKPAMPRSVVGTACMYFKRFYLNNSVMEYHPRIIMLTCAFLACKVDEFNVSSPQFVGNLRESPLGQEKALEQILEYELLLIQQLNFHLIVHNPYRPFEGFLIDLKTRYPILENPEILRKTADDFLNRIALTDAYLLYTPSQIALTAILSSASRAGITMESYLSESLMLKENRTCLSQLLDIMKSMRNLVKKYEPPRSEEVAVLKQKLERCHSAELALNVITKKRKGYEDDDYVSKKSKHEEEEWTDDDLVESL
T4 sequence (P51948 whole entry partner): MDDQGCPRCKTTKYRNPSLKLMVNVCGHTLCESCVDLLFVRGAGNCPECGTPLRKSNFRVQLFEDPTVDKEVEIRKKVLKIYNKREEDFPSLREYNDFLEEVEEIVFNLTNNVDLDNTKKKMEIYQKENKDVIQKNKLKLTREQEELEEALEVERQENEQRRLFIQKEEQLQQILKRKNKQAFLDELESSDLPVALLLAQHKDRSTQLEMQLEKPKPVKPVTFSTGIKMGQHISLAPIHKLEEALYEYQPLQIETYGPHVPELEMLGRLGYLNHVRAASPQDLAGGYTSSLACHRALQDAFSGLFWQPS
T1 sequence (P06493 whole entry): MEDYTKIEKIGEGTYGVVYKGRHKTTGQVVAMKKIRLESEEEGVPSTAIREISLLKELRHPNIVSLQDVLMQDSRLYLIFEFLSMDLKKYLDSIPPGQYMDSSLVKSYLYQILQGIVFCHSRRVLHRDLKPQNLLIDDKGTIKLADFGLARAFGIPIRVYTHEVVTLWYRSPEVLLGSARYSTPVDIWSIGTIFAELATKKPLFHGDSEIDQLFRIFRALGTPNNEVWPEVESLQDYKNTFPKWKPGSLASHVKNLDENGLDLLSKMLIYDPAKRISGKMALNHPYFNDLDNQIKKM
T1 sequence (P14635 whole entry partner): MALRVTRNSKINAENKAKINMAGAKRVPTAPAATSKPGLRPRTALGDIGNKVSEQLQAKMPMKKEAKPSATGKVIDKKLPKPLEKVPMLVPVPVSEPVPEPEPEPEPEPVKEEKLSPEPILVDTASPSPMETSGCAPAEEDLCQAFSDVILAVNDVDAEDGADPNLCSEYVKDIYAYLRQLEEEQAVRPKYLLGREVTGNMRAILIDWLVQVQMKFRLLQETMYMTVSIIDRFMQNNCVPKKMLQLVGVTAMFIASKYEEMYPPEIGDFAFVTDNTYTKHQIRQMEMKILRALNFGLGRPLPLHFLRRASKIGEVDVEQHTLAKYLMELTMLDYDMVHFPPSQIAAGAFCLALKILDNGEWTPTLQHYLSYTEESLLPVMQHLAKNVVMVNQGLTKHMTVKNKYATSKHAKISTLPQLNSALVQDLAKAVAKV
T2 sequence (Q00535 whole entry): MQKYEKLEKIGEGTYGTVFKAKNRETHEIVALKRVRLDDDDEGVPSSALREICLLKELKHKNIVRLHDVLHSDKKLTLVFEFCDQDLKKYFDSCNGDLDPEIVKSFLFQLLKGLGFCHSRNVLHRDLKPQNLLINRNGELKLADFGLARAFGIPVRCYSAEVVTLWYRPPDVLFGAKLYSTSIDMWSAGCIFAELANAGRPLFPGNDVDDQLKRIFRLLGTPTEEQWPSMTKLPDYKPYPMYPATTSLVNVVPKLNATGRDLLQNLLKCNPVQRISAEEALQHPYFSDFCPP
T2 sequence (Q15078 99-307 partner limits assumed): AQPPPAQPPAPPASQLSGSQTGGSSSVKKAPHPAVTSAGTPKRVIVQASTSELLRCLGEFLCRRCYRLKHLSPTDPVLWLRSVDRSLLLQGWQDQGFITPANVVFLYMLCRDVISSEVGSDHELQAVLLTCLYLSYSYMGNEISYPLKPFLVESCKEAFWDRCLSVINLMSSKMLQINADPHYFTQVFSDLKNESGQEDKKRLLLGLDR

Row | SMILES | IC50 (CDK1/Cyclin B) | IC50 (A2780) | IC50 (OVCAR-3) | IC50 (CDK5/p25) | IC50 (CDK2/Cyclin A) | IC50 (CDK7/Cyclin H/MNAT1) | CDK1/CDK7: Selectivity of CDK7 inhibition over CDK1 inhibition (CDK7/Cyclin H/MNAT1) | CDK2/CDK7: Selectivity of CDK7 inhibition over CDK2 inhibition (CDK7/Cyclin H/MNAT1) | CDK5/CDK7: Selectivity of CDK7 inhibition over CDK5 inhibition (CDK7/Cyclin H/MNAT1)
1 | C=C(F)C(=O)Nc1ccc2c(-c3ccccc3CNc3nc(NC[C@H]4CCN(CC)C[C@@H]4O)nc4c(C(C)C)cnn34)nccc2c1 [Compound 169] | > 1 µM | < 1 µM | < 1 µM | > 1 µM | > 1 µM | < 0.1 µM | B (B indicates 50 < [fold] ≤ 500) | B (B indicates 50 < [fold] ≤ 500) | B (B indicates 50 < [fold] ≤ 500)
2 | C=C(F)C(=O)Nc1ccc2c(-c3ccccc3CNc3nc(N4CCc5ncccc5C4)nc4c(C(C)C)cnn34)nccc2c1 [Compound 170] | > 1 µM | < 1 µM | 1 to 10 µM | > 1 µM | > 1 µM | 0.1 to 1 µM | B (B indicates 50 < [fold] ≤ 500) | B (B indicates 50 < [fold] ≤ 500) | B (B indicates 50 < [fold] ≤ 500)
3 | C=C(F)C(=O)Nc1ccc2c(-c3ccccc3CNc3nc(N[C@H]4CCC(C)(C)NC4)nc4c(C(C)C)cnn34)nccc2c1 [Compound 171] | > 1 µM | < 1 µM | < 1 µM | > 1 µM | > 1 µM | < 0.1 µM | A (A indicates [fold] > 500) | A (A indicates [fold] > 500) | A (A indicates [fold] > 500)
4 | C=C(F)C(=O)Nc1ccc2c(-c3ccccc3CNc3nc(NC4CCCNC4)nc4c(C(C)C)cnn34)nccc2c1 (stereo not drawn) [Compound 172] | > 1 µM | < 1 µM | < 1 µM | > 1 µM | > 1 µM | < 0.1 µM | A (A indicates [fold] > 500) | A (A indicates [fold] > 500) | A (A indicates [fold] > 500)

Next, values leading:

Row | IC50 (CDK1/Cyclin B) | IC50 (A2780) | IC50 (OVCAR-3) | IC50 (CDK5/p25) | IC50 (CDK2/Cyclin A) | IC50 (CDK7/Cyclin H/MNAT1) | CDK1/CDK7: Selectivity of CDK7 inhibition over CDK1 inhibition (CDK7/Cyclin H/MNAT1) | CDK2/CDK7: Selectivity of CDK7 inhibition over CDK2 inhibition (CDK7/Cyclin H/MNAT1) | CDK5/CDK7: Selectivity of CDK7 inhibition over CDK5 inhibition (CDK7/Cyclin H/MNAT1) | SMILES
5 | > 1 µM | < 1 µM | < 1 µM | > 1 µM | > 1 µM | 0.1 to 1 µM | B (B indicates 50 < [fold] ≤ 500) | B (B indicates 50 < [fold] ≤ 500) | B (B indicates 50 < [fold] ≤ 500) | C=C(F)C(=O)Nc1ccc2c(-c3ccccc3CNc3nc(N4CO[C@H]5CN(C)CC[C@@H]5C4)nc4c(C(C)C)cnn34)nccc2c1 [Compound 165]
6 | > 1 µM | < 1 µM | > 10 µM | > 1 µM | > 1 µM | < 0.1 µM | A (A indicates [fold] > 500) | A (A indicates [fold] > 500) | A (A indicates [fold] > 500) | C=C(F)C(=O)Nc1ccc2c(-c3ccccc3CNc3nc(N[C@@H]4CCCNC4)nc4c(C(C)C)cnn34)nccc2c1 [Compound 166]
7 | > 1 µM | < 1 µM | < 1 µM | > 1 µM | > 1 µM | 0.1 to 1 µM | B (B indicates 50 < [fold] ≤ 500) | B (B indicates 50 < [fold] ≤ 500) | B (B indicates 50 < [fold] ≤ 500) | Cc1nc(NCc2ccccc2-c2nccc3cc(NC(=O)/C=C/CN(C)C)ccc23)n2ncc(C(C)C)c2n1 [Compound 167]
8 | > 1 µM | < 1 µM | < 1 µM | > 1 µM | > 1 µM | < 0.1 µM | B (B indicates 50 < [fold] ≤ 500) | B (B indicates 50 < [fold] ≤ 500) | B (B indicates 50 < [fold] ≤ 500) | C=C(F)C(=O)Nc1ccc2c(-c3ccccc3CNc3nc(NC[C@H]4CCN(C(C)C)C[C@@H]4O)nc4c(C(C)C)cnn34)nccc2c1 [Compound 168]
